Data on 2 compounds can be found in patent US20170099837A1, “EXTRACTS OF AGRICULTURAL HUSKS USED TO MODIFY THE METABOLISM OF PLANTS” (priority 2014, published 2017).

Data set [1] relates to Daphnia magna. The data set can be described thus: 48-h static toxicity test on Daphnia magna. Conditions: in vivo. The protocol:
In contrast, pure nitrated phenolic compounds such as p-nitrofenol show toxicities up to 125 times higher, measured as mean lethal concentration (CL50) over Daphnia magna or as concentration without observed effect (CSEO by its Spanish acronym).
The study was carried out to determine composition toxicity on Daphnia magna in a 48-h static test. Test concentrations were determined through a range test. Concentrations used for the definitive test were 62.5, 125, 250, 500 and 1000 mg/L, administered to the system, Daphnia magna, in fresh water. Three copies of 10 organisms were used for each concentration test. Control containers were used, placing 10 daphnides in fresh water without the composition. Dissolved oxygen, temperature, conductivity and pH were assessed at the beginning of the test and after each dose. Observations for immobility were made daily in a test chamber. The test ended after 48±1 hour of exposure. The concentration without observed effect (CSEO) of the composition was 250 mg/L and CE50 (Mean Effective Concentration) was determined higher than 1000 mg/L.

In data set [2] the test system is pepper bell seedlings. Briefly: Protection of pepper bell seedlings exposed to saline stress. Here is the method:
Protection offered by the composition in plants exposed to saline stress was observed through an assay with pepper bell seedlings, cultivar “npiter”. These seedlings were placed in germination plates with peat-moss as substrate and kept during a 40-day period and then transferred to 5-L pots. Adaptation period before treatment commencement consisted of daily irrigation during 10 days reaching saturation by a nutrient formulation based on 100-50-100 N-P-K at 1 mg/L concentrations. Used treatments in the assay were prepared in 100 L containers where NaCl was added until reaching a concentration of 25 mM/L, plus nutrients based on Hoagland formula (50% of its concentration). Irrigation frequency with this nutrient solution was every day, applying a 350 cm^3 volume per plant during the whole assay. Composition application was carried out once per week at a dose of […]. Based on a daily irrigation volume of 350 mL/plant, weekly application of the composition was 0.6 cm^3 per 7 days in 350 cm^3 of irrigation water per plant.

Where [3] appears, read: 25 mM NaCl irrigation, composition 0.6 mL per plant per day applied weekly.

`O=[N+]([O-])c1ccc(O)cc1` [p-nitrofenol]: in data set [1], the “toxicity relative to the composition, measured as mean lethal concentration (CL50) over Daphnia magna or as CSEO” value is recorded as “up to 125 times higher”.

Regarding `[Cl-].[Na+]` [25 mM NaCl, NaCl], in data set [2] (setting [3]), the “Foliar area (cm^2/plant)” value turned out to be 1050 cm^2/plant and the Leaves per plant is listed as 50. Moreover, the “reduction of number of leaves per plant” value in data set [2] (treatment with 25 mM NaCl) is “about 27%”.
